# Values of other authors, collected in patent US10039775B2, “Preparation method for antitumor drug AP26113” (SUZHOU MIRACPHARMA TECHNOLOGY CO., LTD., priority 2015, dated 2018).
# Assays:
# [1] = system: ALK positive nonsmall cell lung cancer; conditions: clinical data; patients with ALK positive nonsmall cell lung cancer, including brain metastases patients
# [2] = system: crizotinib resistant ALK mutation; conditions: nine identified crizotinib resistant ALK mutations
# ALK = ALK (Homo sapiens, UniProt Q9UM73); conditions: ratio versus crizotinib
# Chain of ALK (Q9UM73 19-1620): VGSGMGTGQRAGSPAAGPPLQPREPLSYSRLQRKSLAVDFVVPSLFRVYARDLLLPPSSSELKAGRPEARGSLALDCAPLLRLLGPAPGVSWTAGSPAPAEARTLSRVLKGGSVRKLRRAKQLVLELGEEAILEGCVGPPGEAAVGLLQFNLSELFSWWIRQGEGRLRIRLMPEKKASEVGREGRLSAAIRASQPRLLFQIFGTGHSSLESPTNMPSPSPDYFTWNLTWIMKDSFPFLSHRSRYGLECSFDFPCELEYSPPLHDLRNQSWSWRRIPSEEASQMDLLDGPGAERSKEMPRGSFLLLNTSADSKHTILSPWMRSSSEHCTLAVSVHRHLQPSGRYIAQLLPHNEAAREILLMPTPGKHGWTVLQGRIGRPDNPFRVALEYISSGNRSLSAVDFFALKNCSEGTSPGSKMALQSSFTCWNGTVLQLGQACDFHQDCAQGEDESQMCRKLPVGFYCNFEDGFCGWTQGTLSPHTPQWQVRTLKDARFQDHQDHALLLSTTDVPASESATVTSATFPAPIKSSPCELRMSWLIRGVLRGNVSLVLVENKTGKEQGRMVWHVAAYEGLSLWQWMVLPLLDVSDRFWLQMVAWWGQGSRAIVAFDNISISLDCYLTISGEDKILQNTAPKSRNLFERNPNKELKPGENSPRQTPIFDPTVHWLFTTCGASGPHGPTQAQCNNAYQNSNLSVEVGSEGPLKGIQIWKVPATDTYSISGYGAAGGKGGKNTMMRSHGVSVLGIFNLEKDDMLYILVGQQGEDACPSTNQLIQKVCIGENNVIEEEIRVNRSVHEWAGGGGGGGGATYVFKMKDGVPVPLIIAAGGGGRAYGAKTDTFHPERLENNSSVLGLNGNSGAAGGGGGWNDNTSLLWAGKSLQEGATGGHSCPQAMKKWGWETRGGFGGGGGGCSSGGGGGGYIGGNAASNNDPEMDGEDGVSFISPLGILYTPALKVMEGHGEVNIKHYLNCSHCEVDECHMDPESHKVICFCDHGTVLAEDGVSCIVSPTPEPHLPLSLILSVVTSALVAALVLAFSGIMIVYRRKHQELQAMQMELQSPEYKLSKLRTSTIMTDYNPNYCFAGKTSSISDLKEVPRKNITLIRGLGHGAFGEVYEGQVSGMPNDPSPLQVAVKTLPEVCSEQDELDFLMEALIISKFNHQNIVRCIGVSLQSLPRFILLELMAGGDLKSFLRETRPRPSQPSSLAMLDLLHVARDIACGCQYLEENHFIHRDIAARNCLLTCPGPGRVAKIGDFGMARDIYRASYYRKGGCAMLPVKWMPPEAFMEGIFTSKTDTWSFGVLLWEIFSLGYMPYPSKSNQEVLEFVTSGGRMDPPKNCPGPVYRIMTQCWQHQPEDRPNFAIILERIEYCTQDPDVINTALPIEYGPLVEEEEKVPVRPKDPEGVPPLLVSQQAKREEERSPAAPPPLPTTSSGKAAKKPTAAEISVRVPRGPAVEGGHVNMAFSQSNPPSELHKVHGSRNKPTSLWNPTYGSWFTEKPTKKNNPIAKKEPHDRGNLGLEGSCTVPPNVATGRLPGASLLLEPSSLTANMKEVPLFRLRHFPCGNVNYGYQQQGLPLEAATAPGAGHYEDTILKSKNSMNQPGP
compound,measurement,setting,value
"COc1cc(N2CCC(N(C)C)CC2)ccc1Nc1ncc(Cl)c(Nc2ccccc2P(C)(C)=O)n1 [AP26113, 5-chloro-N2-[4-[4-(dimethylamino)-1-piperidyl]-2-methoxyphenyl]-N4-[2-(dimethyl phosphitylate)phenyl]-2,4-diaminopyrimidine]",anti-tumor activity on patients,[1],continuous anti-tumor activity
same,inhibition of all nine identified crizotinib resistant ALK mutation,[2],can be inhibited
same,inhibitory activity to ALK relative to the inhibitor activity of crizotinib to ALK,ALK,about 10 times
